This note sets out measurements from the SangsterLogP compilation.

As usually defined, the logP is the decadic logarithm of the partition coefficient of the neutral form, usually between octanol and water.

Molecule `CCCC(CCC)=NNC(=N)N` displayed a logP of 1.73.

As to `NC(=Nc1ccccc1)NN=Cc1ccc2ccccc2n1`, the logP was 0.99.

`CC(=NN=C(N)N)c1cccs1` displayed a logP of 1.05.

As for `CCCC(CCC)=NNC(N)=Nc1ccccc1`, the logP was 2.33.

Take `C/C(=N/N/C(N)=N/c1ccccc1)c1ccccc1`: the logP is 2.18.

As for `N=C(N)NN=Cc1ccccc1`, the logP stood at 1.18.

The molecule `CCCCCC(CCC)=NNC(=N)N` yielded a logP of 2.17.

`CCCCC(C)=NNC(N)=Nc1ccccc1` came in with a logP of 2.05.

For the molecule `NC(N)=N/N=C(\c1ccccc1)c1cccs1`, the logP was 1.96.

As to `CCCCCC/C(C)=N\N=C(N)N`, the log partition coefficient (logP) was 2.08.

In turn, `NC(N)=N/N=C/c1cccs1` yielded a log partition coefficient (logP) of 0.98.

The molecule `CCC/C(=N\NC(N)=Nc1ccccc1)c1ccccc1` returned a logP of 2.08.
